The results in this text go back to PubChem BioAssay AID248 (DTP/NCI, 2004).

SMILES strings stand for the structures. “And” between values parts separate entries of the source, which are not always exact repeats. Identical values can stand only once. Inconclusive results and toxic doses are left out.

The subject of this test is L1210 leukemia ip in BDF1 mice, survival T/C. Nature of the test: NCI In Vivo Anticancer Drug Screen. Data for tumor model L1210 Leukemia (intraperitoneal) in B6D2F1 (BDF1) mice. As to conditions: endpoint: mean survival time, higher = longer survival. Summed up:
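Tumor was transplanted into mice, which were then dosed with test compound or vehicle alone. Survival was recorded for each group, and the treated figure was expressed relative to the control figure.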

[1] abbreviates: dose: 100.0 mg/kg/injection, schedule: Q04DX003 (ip), vehicle: saline with Tween-80.
[2] abbreviates: dose: 200.0 mg/kg/injection, schedule: Q04DX003 (ip), vehicle: saline with Tween-80.
Setting [3] is: dose: 400.0 mg/kg/injection, schedule: Q04DX003 (ip), vehicle: saline with Tween-80.
The mark [4] stands for this setting: dose: 100.0 mg/kg/injection, schedule: Q01DX001 (ip), vehicle: saline.
[5] abbreviates: dose: 200.0 mg/kg/injection, schedule: Q01DX001 (ip), vehicle: saline.
Where [6] appears, read: dose: 400.0 mg/kg/injection, schedule: Q01DX001 (ip), vehicle: saline.
[7] abbreviates: dose: 25.0 mg/kg/injection, schedule: Q04DX003 (ip), vehicle: saline with Tween-80.
Where [8] appears, read: dose: 50.0 mg/kg/injection, schedule: Q04DX003 (ip), vehicle: saline with Tween-80.
Setting [9] is: dose: 100.0 mg/kg/injection, schedule: Q01DX009 (ip), vehicle: Klucel (hydroxypropylcellulose) (HPC).
Setting [10] is: dose: 100.0 mg/kg/injection, schedule: Q04DX003 (ip), vehicle: Klucel (hydroxypropylcellulose) (HPC).
[11] abbreviates: dose: 200.0 mg/kg/injection, schedule: Q01DX009 (ip), vehicle: Klucel (hydroxypropylcellulose) (HPC).
[12] abbreviates: dose: 200.0 mg/kg/injection, schedule: Q04DX003 (ip), vehicle: Klucel (hydroxypropylcellulose) (HPC).
Where [13] appears, read: dose: 400.0 mg/kg/injection, schedule: Q01DX009 (ip), vehicle: Klucel (hydroxypropylcellulose) (HPC).
[14] abbreviates: dose: 400.0 mg/kg/injection, schedule: Q04DX003 (ip), vehicle: Klucel (hydroxypropylcellulose) (HPC).
[15] abbreviates: dose: 6.25 mg/kg/injection, schedule: Q04DX003 (ip), vehicle: saline.
Setting [16] is: dose: 12.5 mg/kg/injection, schedule: Q04DX003 (ip), vehicle: saline.
[17] abbreviates: dose: 25.0 mg/kg/injection, schedule: Q04DX003 (ip), vehicle: saline.
The mark [18] stands for this setting: dose: 100.0 mg/kg/injection, schedule: Q01DX009 (ip), vehicle: saline with Tween-80.
[19] abbreviates: dose: 200.0 mg/kg/injection, schedule: Q01DX009 (ip), vehicle: saline with Tween-80.
Setting [20] is: dose: 400.0 mg/kg/injection, schedule: Q01DX009 (ip), vehicle: saline with Tween-80.
[21] abbreviates: dose: 100.0 mg/kg/injection, schedule: Q01DX001 (ip), vehicle: carboxymethylcellulose (CMC).
Setting [22] is: dose: 200.0 mg/kg/injection, schedule: Q01DX001 (ip), vehicle: carboxymethylcellulose (CMC).

As to `[O-][N+](=C(c1ccccc1)c1ccccc1)c1ccccc1`, the T/C reads like this: under setting [1], 101 % of control; under setting [2], 93 % of control; under setting [3], 90 % of control.

`CCOC(=O)C(Cc1c[nH]c2ccccc12)NC(=O)/C=C/N(CCCl)CCCl` (stereo not given): the T/C runs as follows: (dose: 10.0 mg/kg/injection, schedule: Q01DX Z (ip), vehicle: other) 91 % of control; (dose: 20.0 mg/kg/injection, schedule: Q01DX Z (ip), vehicle: other) 92 % of control; (dose: 40.0 mg/kg/injection, schedule: Q01DX Z (ip), vehicle: other) 94 % of control; (dose: 80.0 mg/kg/injection, schedule: Q01DX Z (ip), vehicle: other) 89 % of control.

Turning to `COc1ccccc1CNC1CCCCC1`, the T/C (dose: 75.0 mg/kg/injection, schedule: Q01DX001 (ip), vehicle: saline) was 92 % of control.

`CCC/C=C(\C)CCCC`: the T/C runs as follows: under setting [4], 97 % of control; under setting [5], 99 % of control; under setting [6], 95 % of control.

For the compound `O=C(OCC1CC1)c1cc([N+](=O)[O-])cc([N+](=O)[O-])c1`, the T/C is, setting by setting: under setting [7], 108 % of control; under setting [8], 106 % of control; under setting [1], 101 % of control.

Turning to `O=C(CN1CCCCC1)Nc1cccc(C(F)(F)F)c1`, the T/C is 99 % of control under setting [9]; 97 % of control under setting [10]; 100 % of control under setting [11]; 98 % of control under setting [12]; 100 % of control under setting [13]; 93 % of control under setting [14].

For `CCN(CC)Cc1cc(-n2cnc3c(Cl)ncnc32)ccc1O`, the T/C was 101 % of control under setting [15], 103 % of control under setting [16] and 96 % of control under setting [17].

Take `COc1ccccc1C(O)(c1ccccc1)c1ccccc1OC`: the T/C is 92 % of control under setting [10], 98 % of control under setting [12] and 97 % of control under setting [14].

Take `O=C1CC=C2C3CC4N(CCC45c4ccccc4N1C25)C/C3=C\CBr` (stereo not given): the T/C (dose: 9.38 mg/kg/injection, schedule: Q01DX001 (ip), vehicle: other) was 100 % of control.

Turning to `O=c1ccnc[nH]1`, the T/C reads like this: under setting [18], 92 % of control; under setting [19], 93 % of control; under setting [20], 88 % of control.

`COc1ccc([N+](=O)[O-])cc1NC(=O)Nc1nccs1`: the T/C runs as follows: (dose: 50.0 mg/kg/injection, schedule: Q01DX009 (ip), vehicle: Klucel (hydroxypropylcellulose) (HPC)) 105 % of control; under setting [9], 105 % of control; under setting [11], 101 % of control.

Regarding `c1cc[c]([Pb]([c]2ccccc2)([c]2ccccc2)[n]2ccc3ccccc32)cc1`, the T/C by setting is: (dose: 1.0 mg/kg/injection, schedule: Q04DX003 (ip), vehicle: saline with Tween-80) 113 % of control; (dose: 1.56 mg/kg/injection, schedule: Q01DX009 (ip), vehicle: saline with Tween-80) 91 % of control; (dose: 2.0 mg/kg/injection, schedule: Q04DX003 (ip), vehicle: saline with Tween-80) 90 % of control; (dose: 3.12 mg/kg/injection, schedule: Q01DX009 (ip), vehicle: saline with Tween-80) 89 % of control; (dose: 4.0 mg/kg/injection, schedule: Q04DX003 (ip), vehicle: saline with Tween-80) 101 % of control; (dose: 8.0 mg/kg/injection, schedule: Q04DX003 (ip), vehicle: saline with Tween-80) 101 % of control.

As for `c1csc(-c2nc3ccccc3s2)c1`, the T/C under setting [18] is 98 % of control; the T/C under setting [1] was 101 % of control; the T/C under setting [19] was 100 % of control; the T/C under setting [2] was 98 % of control; the T/C under setting [20] is 94 % of control; the T/C under setting [3] is 93 % of control.

In the case of `CCOc1ccccc1NC(=O)Nc1cccc(Cl)c1`, the T/C runs as follows: under setting [10], 100 % of control; under setting [11], 94 % of control; under setting [12], 100 % of control; under setting [13], 97 % of control; under setting [14], 104 % of control.

Consider `OC1CCC2=C(C1)C1CCC2C1` (stereo not given), for which the T/C is 96 % of control (dose: 12.5 mg/kg/injection, schedule: Q04DX003 (ip), vehicle: saline with Tween-80); 89 % of control under setting [7]; 98 % of control under setting [8].

Take `COc1ccc(C(CCCC(=O)O)c2ccc(OC)cc2)cc1`: the T/C is 112 % of control under setting [4], 104 % of control under setting [5] and 104 % of control under setting [6].

Take `CCCCN(CCCC)CC(O)c1cc2ccc(Cl)cc2nc1-c1ccc(Cl)cc1` (stereo not given): the T/C is 100 % of control under setting [10], 96 % of control under setting [12] and 102 % of control under setting [14].

Regarding `CN(C)CCN=Cc1[nH]c(=S)[nH]c(=O)c1CCc1ccccc1`, the T/C was 93 % of control (dose: 100.0 mg/kg/injection, schedule: Q01DX001 (ip), vehicle: saline with Tween-80); 97 % of control (dose: 200.0 mg/kg/injection, schedule: Q01DX001 (ip), vehicle: saline with Tween-80); 95 % of control (dose: 400.0 mg/kg/injection, schedule: Q01DX001 (ip), vehicle: saline with Tween-80).

Regarding `O=C(c1ccc([N+](=O)[O-])cc1)C(Br)C(Br)c1ccncc1` (stereo not given), the T/C by setting is: under setting [9], 89 % of control; under setting [11], 89 % of control; under setting [13], 93 % of control.

For `c1cc(-n2nnc3cnccc32)ccn1`, the T/C is 100 % of control under setting [15]; 91 % of control under setting [16]; 102 % of control under setting [17]; 86 % of control (dose: 100.0 mg/kg/injection, schedule: Q04DX003 (ip), vehicle: saline).

With `CSc1ccc(NC(=O)Nc2ccc(F)cc2)cc1`, the T/C under setting [9] was 96 % of control and the T/C under setting [11] is 97 % of control.

Take `C=C(C)COP(=O)(OCC(=C)C)OCC(=C)C`: the T/C runs as follows: under setting [9], 97 % of control; under setting [10], 97 % of control; under setting [11], 100 % of control; under setting [12], 100 % of control; under setting [13], 103 % of control; under setting [14], 92 % of control.

Turning to `Nc1ccn(C2OC(COC(=O)C34CC5CC(CC(C5)C3)C4)C(O)C2O)c(=O)n1` (stereo not given), the T/C by setting is: (dose: 50.0 mg/kg/injection, schedule: Q01DX001 (ip), vehicle: other) 156 % of control and 170 % of control; (dose: 100.0 mg/kg/injection, schedule: Q01DX001 (ip), vehicle: other) 165 % of control and 248 % of control; (dose: 200.0 mg/kg/injection, schedule: Q01DX001 (ip), vehicle: other) 213 % of control and 300 % of control.

In the case of `CC1([N+](=O)[O-])COP(=O)(Nc2ccc(F)cc2)OC1` (stereo not given), the T/C reads like this: under setting [21], 100 % of control; under setting [22], 94 % of control.

On to `Cc1ccc(CN(C)C)c(C(O)(c2ccccc2)c2ccccc2)c1`, for which the T/C was 96 % of control (dose: 50.0 mg/kg/injection, schedule: Q01DX001 (ip), vehicle: carboxymethylcellulose (CMC)); 107 % of control under setting [21]; 100 % of control under setting [22]; 96 % of control (dose: 400.0 mg/kg/injection, schedule: Q01DX001 (ip), vehicle: carboxymethylcellulose (CMC)).

`CCCCCCCCCCCCC1C2CCCCC2C2CCCCC12` (stereo not given): the T/C is, setting by setting: under setting [4], 92 % of control; under setting [5], 92 % of control; under setting [6], 92 % of control.

On to `O=C(CCl)c1cnc2ccccc2n1`, for which the T/C was 102 % of control (dose: 5.0 mg/kg/injection, schedule: Q01DX009 (ip), vehicle: saline); 103 % of control (dose: 5.0 mg/kg/injection, schedule: Q04DX003 (ip), vehicle: saline); 98 % of control (dose: 10.0 mg/kg/injection, schedule: Q01DX009 (ip), vehicle: saline); 100 % of control (dose: 10.0 mg/kg/injection, schedule: Q04DX003 (ip), vehicle: saline); 93 % of control (dose: 20.0 mg/kg/injection, schedule: Q01DX009 (ip), vehicle: saline); 100 % of control (dose: 20.0 mg/kg/injection, schedule: Q04DX003 (ip), vehicle: saline).
